Test results: patent US8937038B2, “Composition containing peptide ligand that bonds with CXCR2 for treating infective and inflammatory diseases” (priority 2010, dated 2015)
Where no end group is shown, it is not given here. The star is where a group is joined. Palmitoyl = CCCCCCCCCCCCCCCC(=O)*

Key:
mouse neutrophils = experiment: H2O2 production in mouse neutrophils; type: cell-based; details: neutrophils pretreated with SB225002 30 minutes, then Ac-PGP 20 μM; FIG. 13
Procedure: Mouse neutrophils were separated from peripheral blood using a Histopaque-1077 solution (Sigma) (Bae Y S et al. 2001 Blood. 97: 2854-2862). The neutrophils separated from normal mice were stimulated with various concentrations of Ac-PGP for 10 minutes in the presence of cytochalasin B (5 μM). To identify the role of mCXCR2, the neutrophils were pre-incubated in various concentrations of SB225002 or a vehicle (DMSO) for 30 minutes in a stationary environment, and Ac-PGP (20 μM) was added, and incubated for 10 minutes. H2O2 in a supernatant was measured using a H2O2 measurement kit (Molecular probe).
A death rate by CLP is correlated with the number of bacterial colonies in a peritoneal fluid. Therefore, an effect of the Ac-PGP on removal of bacteria in a peritoneal fluid was examined. […] In vitro disinfection activity of the Ac-PGP was examined using neutrophils derived from a mouse. The mouse neutrophils were kept for an hour to phagocytize E. coli, and then stimulated with various concentrations of Ac-PGP (0.1 to 100 nM) for 20 minutes. […] A reactive oxygen species such as hydrogen peroxide was known as an important molecule participating in the disinfection activity. Therefore, an effect of Ac-PGP on production of hydrogen peroxide in the mouse neutrophils was examined. […]

human neutrophils = experiment: Cytokine production by LPS-stimulated human neutrophils; type: cell-based; details: human neutrophils stimulated with LPS
From the text: (§1) All kinds of protocols used in human beings were approved by the Institutional Review Board (IRB) at Dong-A University Hospital, and prior consents were obtained from all blood donors. Peripheral blood was collected from healthy donors, and human peripheral monocytes were separated using a Histopaque-1077 gradient. Neutrophils were separated through methods such as dextran precipitation of red blood cell, hypotonic lysis, and usage of lymphocyte isolation medium gradient, as known in the related art (Bae, Y. S. et al. Blood 97, 2854-2862(2001)). The separated human leukocytes were used immediately.
(§2) Next, an effect of the Ac-PGP on production of cytokines by human neutrophils and PBMCs was examined. […] A human CXCR2 chemokine agonist CXCL8 had few effects on production of TNF-α or IFN-γ stimulated with LPS (FIG. 28 to FIG. 31). Therefore, the Ac-PGP could improve both antiseptic activities in leukocytes derived from human beings and mice.

PBMCs = experiment: Cytokine production by LPS-stimulated human PBMCs; type: cell-based; details: human PBMCs stimulated with LPS
From the text: as §1, §2

[1] = tested on: cecal ligation and puncture (CLP)-septic mice; details: Kuliopulos et al.; cited from earlier work
mouse splenocytes = experiment: Cytokine release from LPS-stimulated mouse splenocytes (ELISA); type: cell-based; details: LPS 100 ng/ml
Procedure: Mouse splenocytes were positioned on an RPMI 1640 medium including 5% FBS in a 96-well plate, and maintained at 37° C. in a 5% CO2 incubator. Thereafter, the splenocytes were stationarily incubated with LPS (100 ng/ml) for 24 hours in the presence or absence of Ac-PGP. After 30 minutes, LPS was added to the cells and collected a cell-free supernatant, and then the supernatant was centrifuged, and TNF-α, IL-6 and IFN-γ were measured using ELISA (BD Biosciences Pharmingen). In regards to the effect of IFN-γ on production of pro-inflammatory cytokines induced by LPS, 5×10^5 cells/ml of the mouse splenocytes were stimulated with 100 ng/ml of LPS in the presence or absence IFN-γ (R&D) (at various concentrations of 1, 10, 100 and 1,000 IU/ml). Amounts of TNF-α and IL-6 were measured 20 hours after stationary incubation using ELISA (BD Biosciences Pharmingen).
An effect of the Ac-PGP on a pro-inflammatory cytokine in a peritoneal fluid by CLP was determined from 4 to 72 hours after the CLP. The CLP induced a remarkable increase in levels of pro-inflammatory cytokines (TNF-α, IL-1β and IL-6) within 24 hours (FIGS. 14 to 16). Injection of the Ac-PGP in a sepsis model by the CLP induced a remarkable change in levels of the cytokines. […] To evaluate an effect of the Ac-PGP on production of the pro-inflammatory cytokines by the LPS, in vitro production of TNF-α and IL-6 by the mouse splenocytes was evaluated. Direct release of the TNF-α and IL-6 from the mouse splenocytes by the LPS was suppressed by in vitro treatment with the Ac-PGP (FIGS. 17 and 18).
Since it was confirmed that the administration of the Ac-PGP improved in vivo production of IFN-γ, a direct effect of the Ac-PGP on production of IFN-γ by splenocytes was examined. […] Also, an effect of IFN-γ on production of the pro-inflammatory cytokines was also examined.

Molecule: O=C(Nc1ccc([N+](=O)[O-])cc1O)Nc1ccccc1Br [SB225002, reference compound]
- production of hydrogen peroxide by the Ac-PGP (mouse neutrophils): completely suppressed

Molecule: CXCL8: human CXCR2 chemokine agonist
- production of TNF-α (human neutrophils; FIG. 28): few effects
- production of IFN-γ (human neutrophils; FIG. 30): few effects
- production of TNF-α (PBMCs; FIG. 29): few effects
- production of IFN-γ (PBMCs; FIG. 31): few effects

Molecule: pal-RTLFKAHMGQKHR (Palmitoyl-RTLFKAHMGQKHR) [x1/2pal-3]
- survival rate [1]: remarkable increase in survival rate

B1: IFN-γ: type 1 cytokine (R&D) added to mouse splenocytes at 1 to 1,000 IU/ml (protein, UniProt P01580 23-155, looked up)
Interferon gamma: HGTVIESLESLNNYFNSSGIDVEEKSLFLDIWRNWQKDGDMKILQSQIISFYLRLFEVLKDNQAISNNISVIESHLITTFFSNSKAKKDAFMSIAKFEVNNPQVQRQAFNELIRVVHQLLPESSLRKRKRSRC
- production of TNF-α by LPS (mouse splenocytes; 5×10^5 cells/ml, IFN-γ 1, 10, 100 and 1,000 IU/ml, 20 hours, FIG. 25): relieved production
- production of IL-6 by LPS (mouse splenocytes; 5×10^5 cells/ml, IFN-γ 1, 10, 100 and 1,000 IU/ml, 20 hours, FIG. 26): relieved production

B2: KC: counterpart of mouse IL-8; mouse chemokine activating CXCR2 (protein, UniProt P12850 25-96, looked up)
Growth-regulated alpha protein: APIANELRCQCLQTMAGIHLKNIQSLKVLPSGPHCTQTEVIATLKNGREACLDPEAPLVQKIVQKMLKGVPK
- release of TNF-α by LPS (mouse splenocytes; 24 hours, FIG. 17): could not suppress
- release of IL-6 by LPS (mouse splenocytes; 24 hours, FIG. 18): could not suppress
